Data as given in patent publication US8183247B2, “Boron compounds useful in BNCT” (Hammercap AB, priority 2005, dated 2012).

Legend:
[1] = system: human glioma cell line U343mga; assay: Cell uptake of boronated compounds (boron content by DCP-AES); format: cell-based; details: U343mga cells, 6 hours incubation, 5×10^−4 M boron; for Boron content expressed as a function of total cell protein, Trial 1: trial 1: 7.2 μg boron/ml culture medium; for Boron content expressed as a function of total cell protein, Trial 2: trial 2: 7.7 μg boron/ml culture medium
Experimental: (§1) Four different tumour cell lines of human origin, including human glioma cell line U343mga, human hepatocarcinoma cell line Hep3B, human breast adenocarcinoma cell line MCF7 and human sarcoma cell line 4SS, were used for in vitro testing of the purified material from Example 3 (hereinafter designated as BF). Cells were plated on non-coated tissue culture plastics and cultured at 37° C. in incubators with humidified air, equilibrated with 5% CO2. They were grown in recommended tissue culture medium, supplemented with 10% FCS and PEST (penicillin 100 IU/ml and streptomycin […]). For passage of cells, cells were trypsinized with trypsin-EDTA (0.25% trypsin, 0.02% EDTA in phosphate buffered saline (PBS) without calcium and magnesium).
U343 mga cells were plated on Petri dishes at 75% cell density and incubated with one of boric acid (BA), vitamin B12 conjugated boron (BB), 1-4-dihydroxyboryl-phenylalanine (BPA) or BF dissolved in tissue culture medium for 6 hours. All four boronated compounds were added to and dissolved in the tissue culture medium at equimolar concentrations with respect to the boron content (5×10^−4 M boron). Incubations were stopped by removing the boron-containing tissue culture medium and by adding cold PBS buffer for washing excess of medium from cells. Cells were immediately harvested by scraping them off the plastic dish using a rubber policeman. They were collected in cold PBS and pelleted by centrifugation.
(§2) Cell samples were taken for total protein analysis according to a standard Bradford procedure. Cell pellets were processed for boron analysis by Direct Current Plasma-Atomic Emission Spectroscopy (DCP-AES). Samples (50-130 mg) were digested at 60° C. with sulfuric acid/nitric acid (1/1). Triton X-100 and water added to give a concentrations of 50 mg tissue/ml, 15% total acid v/v and 5% Triton X-100 v/v. The boron concentrations were based on a known reference sample.

[2] = system: U343mga cells; assay: Intracellular retention of boron after withdrawal of boron containing medium; format: cell-based, human; details: for Boron content in U343mga cells, 0 hour after withdrawal of boron containing medium / Boron content in U343mga cells, 2 hours after withdrawal of boron containing medium / Boron content in U343mga cells, 7 hours after withdrawal of boron containing medium: 18 hours incubation, 5×10^−4 M boron
Experimental: as §1, §2
U343 mga cells, were plated on Petri dishes at 75% cell density and incubated with one of 1-4-dihydroxyboryl-phenylalanine (BPA) or BF in tissue culture medium for 18 hours. Both boronated compounds were added to the tissue culture medium at equimolar concentrations with respect to the boron content (5×10^−4 M boron). Incubations were stopped by replacing the boron-containing medium with culture medium without boron. Cell samples were harvested at time points 0, 2 and 7 hours where the 0 time point represents immediate after 18 hour incubation of boronated compound.
Cells were washed with cold PBS and harvested by scraping them off the plastic dish using a rubber policeman, collected in cold PBS and pelleted by centrifugation. Cell pellets were analysed for total protein and boron content as described.

[3] = system: U343mga; assay: BF uptake by different tumor cells: U343mga; format: cell-based, human; details: 6 hours incubation
Experimental: as §1
(§3) Cell samples were taken for total protein analysis according to a standard Bradford procedure. Cell pellets were processed for boron analysis by Direct Current Plasma-Atomic Emission Spectroscopy (DCP-AES). Samples (50-130 mg) were digested at 60° C. with sulfuric acid/nitric acid (1/1). Triton X-100 and water added to give a concentrations of 50 mg tissue/ml, 15% total acid v/v and 5% Triton X-100 v/v. The boron concentrations were based on a known reference sample. […]

[4] = system: human hepatocarcinoma cell line Hep3B; assay: BF uptake by different tumor cells: Hep3B; format: cell-based; details: 6 hours incubation
Experimental: as §1, §3

[5] = system: human breast adenocarcinoma cell line MCF7; assay: BF uptake by different tumor cells: MCF7; format: cell-based; details: 6 hours incubation
Experimental: as §1, §3

[6] = system: human sarcoma cell line 4SS; assay: BF uptake by different tumor cells: 4SS; format: cell-based; details: 6 hours incubation
Experimental: as §1, §3

[7] = system: tumour cell lines of human origin; assay: In vitro studies in tumour cell lines: signs of toxicity; format: cell-based; details: Examples 4-6
Experimental: as §1

| Compound | Boron content expressed as a function of total cell protein, Trial 1 [1] [μg boron/g cell protein] | Boron content expressed as a function of total cell protein, Trial 2 [1] [μg boron/g cell protein] | Boron content in U343mga cells, 0 hour after withdrawal of boron containing medium [2] [μg boron/g cell pellet] | Boron content in U343mga cells, 2 hours after withdrawal of boron containing medium [2] [μg boron/g cell pellet] | Boron content in U343mga cells, 7 hours after withdrawal of boron containing medium [2] [μg boron/g cell pellet] | Boron content expressed as a function of total cell protein, Low cell density ([3]; 40-50% (low) cell density) [μg boron/g cell protein] | Boron content expressed as a function of total cell protein, High cell density ([3]; 90-100% (high) cell density) [μg boron/g cell protein] | Boron content expressed as a function of total cell protein, Low cell density ([4]; 40-50% (low) cell density) [μg boron/g cell protein] | Boron content expressed as a function of total cell protein, High cell density ([4]; 90-100% (high) cell density) [μg boron/g cell protein] | Boron content expressed as a function of total cell protein, Low cell density ([5]; MCF7, 40-50% (low) cell density) [μg boron/g cell protein] | Boron content expressed as a function of total cell protein, High cell density ([5]; MCF7, 90-100% (high) cell density) [μg boron/g cell protein] | Boron content expressed as a function of total cell protein, Low cell density ([6]; 40-50% (low) cell density) [μg boron/g cell protein] | Boron content expressed as a function of total cell protein, High cell density ([6]; 90-100% (high) cell density) [μg boron/g cell protein] | Share of the total uptake retained in tumour cells ([2]; 7 hours after total depletion of BF in the culture medium) [%] | Signs of toxicity in in vitro studies [7] |
| --- | --- | --- | --- | --- | --- | --- | --- | --- | --- | --- | --- | --- | --- | --- | --- |
| N[C@@H](Cc1ccc(B(O)O)cc1)C(=O)O [BPA, 1-4-dihydroxyboryl-phenylalanine, reference compound] | 65 | 38 | 0.075 | 0 | 0 | – | – | – | – | – | – | – | – | – | – |
| N^2-(4-{[(2-amino-4-oxo-3,4-dihydropteridin-6-yl)methyl]amino}benzoyl)-N-{3-[(1R,9S)-2,3,4,5,6,7,8,10,11,12-decaborabicyclo[7.2.1]dodec-1-yl]propyl}-α-glutamine and N^2-(4-{[(2-amino-4-oxo-3,4-dihydropteridin-6-yl)methyl]amino}benzoyl)-N-[3-(2,3,4,5,6,7,8,10,11,12-decaborabicyclo[7.2.1]dodec-1-yl)propyl]-L-glutamine [BF] | 560 | 440 | 0.79 | 0.59 | 0.3 | 108 | 172 | 171 | 219 | 108 | 169 | 263 | 367 | 40 | without any signs of toxicity |
| OB(O)O [BA, boric acid] | 8 | – | – | – | – | – | – | – | – | – | – | – | – | – | – |
